Data published in patent US20200009110A1, “METHOD FOR TREATING AN ALLERGIC DISEASE” (Arjil Biotech Holding Company Limited, priority 2018, published 2020).
Entries after “also recorded” stand apart in the source; their conditions may differ.

Experiments:
[1] = system: TNF-α secretion in DCs from C57BL/6 mice; assay: ELISA assay for TNF-α secretion by LPS-stimulated dendritic cells; format: cell-based; conditions: AR001DS1 12.5, 25, 50 and 100 μg/ml
Description: DCs were isolated from C57BL/6 mice and incubated at 37° C. for 7 days. Then DCs were plated in a 24-well plate and cultured at 37° C. overnight in a 5% CO2 atmosphere. DCs were treated with AR001DS1 (12.5, 25, 50 and 100 μg/ml) for 1 h, and then stimulated with lipopolysaccharide (LPS) for 4 h. The supernatants were collected and TNF-α secretion in culture supernatants was quantitated using an ELISA assay.

[2] = system: BALB/c mice with Con A-induced hepatitis; assay: Con A-induced acute (autoimmune) hepatitis animal experiment; format: in vivo
Text: Concanavalin A (Con A) and dexamethasone (Dex) were purchased from Sigma-Aldrich (USA). ProcartaPlex™ Immunoassays kit was purchased from Corning Inc. (USA). GOP and GPT Fuji Dri-Chem slides were purchased from Winning Medical Inc. (Taiwan).
Male BALB/c mice (7-9 weeks old) were purchased from BioLASCO Taiwan Co., Ltd or National Laboratory Animal Center (NLAC, Taiwan). Animals were housed five per cage with food and water provided ad libitum throughout the experiments. Room temperature was maintained at 23±2° C. with an alternating 12 h light-dark cycle. Animals were acclimatized for one week to minimize the effect of stress before the experiments. All experimental protocols involving animals and their care were approved by the Institutional Animal Care and Use Committee (IACUC) in ITRI (ITRI-IACUC-2018-041 and ITRI-IACUC-2018-050; accredited by AAALAC) and were carried out according to the regulations of the Council of Agriculture, Taiwan.
Con A was dissolved in pyrogen-free saline at a concentration of 3 mg/ml and intravenously injected at a dose of 15 mg/kg or 20 mg/kg of body weight to induce hepatitis. AR100DS1 and Dex were orally administered 30 min before and then 4 h and 8 h after Con A treatment. Blood and liver tissues were collected 24 h after Con A treatment. Serum were stored at −80° C. until analysis.
To assess the level of hepatocellular injury after Con A treatment, serum GPT and GOT levels were measured by Fuji Dri-Chem slides (Fuji, Japan).
The serum of the same group were pooled for cytokine assay. Cytokine levels were measured by ProcartaPlex™ Immunoassays kit according to manufacturer's instructions.
Liver tissues were fixed in 10% phosphate-buffered formaldehyde, embedded in paraffin, and stained with hematoxylin and eosin (H&E) in order to confirm tissue lesions. Tissue lesions were examined microscopically by a veterinary pathologist at BioLASCO Taiwan Co., Ltd. The criteria of severity grading system for all microscopic lesions were graded from 0 to 4 as follows: 0=none; 1=individual cell necrosis; 2=≤30% lobular necrosis; 3=≤60% lobular necrosis; 4=22 60% lobular necrosis.
Data are presented as mean±SEM. In this study, Student's t-test was used to analyze the differences between drug-and vehicle-treated groups. The difference is regarded statistically significant when p value is less than 0.05.
Autoimmune hepatitis (AIH) is a complex disease which is characterized by hepatocellular inflammation, necrosis, and a tendency to cirrhosis. The plant lectin concanavalin A (Con A)-induced acute hepatitis in BALB/c mice is a common animal model for AIH and we performed this model to evaluate the anti-hepatitis effects of AR001DS1. Dexamethasone (Dex), one of the steroids-based standard treatments of AIH, was used as a positive control.

[3] = system: IL-1β expression in PMA-activated THP-1 cells; assay: PMA-induced IL-1β expression in THP-1 cells (Q-PCR, immunoblotting); format: cell-based; conditions: for IL-1β mRNA expression, treatment after activation: PMA for 24 h, followed by treatment for another 24 h; for IL-1β mRNA and protein expression, pretreatment: pretreated 0.5 h, followed by PMA induction for 48 h
Description: Q-PCR analysis (left) and immunoblotting (right) for IL-1β mRNA and protein expression in THP-1 cells pretreated with AR001DS1 or AR001DS2 for 0.5 h, followed by PMA induction for 48 h.
Q-PCR analysis for IL-1β mRNA expression in THP-1 cells stimulated with PMA for 24 h, followed by treatment with or without AR001DS1 or AR001DS2 for another 24 h.
Because AR100 was composed of AR001DS1 and AR001DS2, THP-1 cells were independently pre-treated with the two components, followed by PMA activation.

[4] = system: PMA-induced cytokines in THP-1 cells; assay: Bio-plex human 27-plex cytokine assay in PMA treated THP-1 cells; format: cell-based; conditions: 10 μg/ml for 0.5 hr, then PMA 10 ng/ml for 24 hr
Text: In addition to IL-1β, several cytokines participated in inflammatory responses. To identify cytokine networks affected by AR001DS1, we performed Bio-plex analysis to monitor the effect of AR001DS1 treatment on the expression of human 27 cytokines in PMA treated THP-1 cells.

RBL-2H3 cells = assay: β-Hexosaminidase secretion assay (mast cell degranulation); format: cell-based; conditions: 12.5, 25, 50 and 100 μg/ml, anti-DNP IgE-sensitized, DNP-BSA stimulated
Description: RBL-2H3 cells were plated in a 24-well plate and then sensitized with anti-dinitrophenyl (DNP)-IgE overnight at 37° C. in a 5% CO2 atmosphere. After washing, the cells were treated with AR001DS1 (12.5, 25, 50 and 100 μg/ml) at 37° C. for 30 min, and then stimulated with DNP-bovine serum albumin (BSA) at 37° C. for 30 min to induce degranulation. The supernatant was transferred to a 96-well microplate and incubated for 2 h with equal volume of 5 mM 4-nitrophenyl N-acetyl-b-glucosaminide in 0.1M citrate buffer (pH 4.5). The reaction was terminated by adding […] of stop buffer (0.05 M sodium carbonate, pH 10), and OD at 405 nm was determined using an ELISA plate reader.

[5] = system: animal model of gout arthritis; assay: Animal model of gout arthritis; conditions: in vivo

Question: How did the “secretion of TNF-α” value [1] turn out when O=c1c(O)c(-c2ccc(O)c(O)c2)oc2cc(O)cc(O)c12 [quercetin, reference compound] was run?
Answer: The value was “effectively reduced the secretion of TNF-α”.

Question: With C[C@@H]1C[C@H]2[C@@H]3CCC4=CC(=O)C=C[C@]4(C)[C@@]3(F)[C@@H](O)C[C@]2(C)[C@@]1(O)C(=O)CO [Dex, dexamethasone] as the molecule, how does the “serum GPT” value ([2]; 15 mg/kg Con A, oral, Con A alone 1437±398) read?
Answer: The value was 898±515 U/L.

Question: What about the “serum GOT” value ([2]; 15 mg/kg Con A, oral, Con A alone 1450±433) of the same molecule?
Answer: The value was 809±339 U/L.

Question: What about the “liver necrosis histopathological score (0-4)” value ([2]; 15 mg/kg Con A, Con A alone 2.2±0.2) of the same molecule?
Answer: The value was 1.6±0.6.

Question: And the “liver necrosis histopathological score (0-4)” value ([2]; 20 mg/kg Con A)?
Answer: The value was 2.6±0.2.

Question: What about the “serum GPT” value ([2]; 20 mg/kg Con A, oral) of the same molecule?
Answer: The value was 1940±403 U/L.

Question: What about the “serum GOT” value ([2]; 20 mg/kg Con A, oral, Con A alone 2249±549) of the same molecule?
Answer: Its value is 1261±282 U/L.

Question: For C=C1C(=O)OC2/C=C(\C)CC3C=C(CC/C=C(\C)CCC12)C(=O)O3 (stereo not drawn) [AR001DS1, ovatodiolide], which “liver necrosis histopathological score (0-4)” value ([2]; 50 mg/kg oral, 15 mg/kg Con A, vehicle 1.4±0.2) is on record?
Answer: The value was 0.2±0.2.

Question: What about the “serum GPT” value ([2]; 50 mg/kg oral, 15 mg/kg Con A, vehicle 368±107, p<0.05) of the same molecule?
Answer: The value was 109±25 U/L.

Question: And the “serum GOT” value ([2]; 50 mg/kg oral, 15 mg/kg Con A, vehicle 410±56)?
Answer: The value was 261±45 U/L.

Question: What about the “IL-1β mRNA expression, treatment after activation” value (“IL-1β mRNA expression, treatment” for short) [3] of the same molecule?
Answer: The value was “inhibits PMA-induced IL-1β expression”.

Question: What about the “IL-1β mRNA expression, treatment” value ([3]; listed as AR100DS1) of the same molecule?
Answer: The value was “attenuated the expression of IL-1β”.

Question: And the “IL-1β mRNA and protein expression, pretreatment” value [3]?
Answer: The value was “blocked the expression of IL-1β; also recorded: inhibits PMA-induced IL-1β expression”.

Question: And the “IL-1β expression (Bio-plex)” value [4]?
Answer: Its value is “attenuated its expression”.

Question: What about the “MIP-α and -β expression (Bio-plex)” value [4] of the same molecule?
Answer: The value was “blocked their expressions”.

Question: What about the “induction of IL-8, TNF-α and RANTES (Bio-plex)” value [4] of the same molecule?
Answer: Its value is “inhibited”.

Question: And the “secretion of β-hexosaminidase (degranulation)” value (RBL-2H3 cells)?
Answer: Its value is “significantly inhibited; also recorded: suppress mast cell degranulation in a dose-dependent manner”.

Question: And the “secretion of TNF-α” value [1]?
Answer: The value was “better inhibitory effect on the secretion of TNF-α in LPS-stimulated DCs than quercetin; also recorded: suppress TNF-α secretion by dendritic cells (DCs) in a dose-dependent manner”.

Question: And the “effect on gout arthritis” value [5]?
Answer: The value was “therapeutic effects”.

Question: For C=CC(OC(C)=O)c1ccc(OC(C)=O)cc1 (stereo not drawn) [AR001DS2, 1′-acetoxychavicol acetate], which “IL-1β mRNA expression, treatment” value [3] is on record?
Answer: Its value is “did not suppressed”.

Question: And the “IL-1β mRNA and protein expression, pretreatment” value [3]?
Answer: Its value is “blocked the expression of IL-1β; also recorded: inhibits PMA-induced IL-1β expression”.
